Source: the NIST ThermoML archive (doi:10.1021/je900058p)
± gives the expanded uncertainty stated by the source.

Key:
[1] = Liquid; for mass density: 293.13 K, 101.33 kPa
[2] = refractive index (Na D-line) (dimensionless); details: 293.13 K; 101.33 kPa; Liquid; Standard Abbe refractometry

Structure (SMILES) | mass density [1] [kg/m3] | vapor or sublimation pressure ([1]; 359.51 K) [kPa] | vapor or sublimation pressure ([1]; 379.52 K) [kPa] | vapor or sublimation pressure ([1]; 392.57 K) [kPa] | vapor or sublimation pressure ([1]; 400.69 K) [kPa] | refractive index [2] | vapor or sublimation pressure ([1]; 383.1 K) [kPa] | vapor or sublimation pressure ([1]; 404.24 K) [kPa] | vapor or sublimation pressure ([1]; 417.99 K) [kPa] | vapor or sublimation pressure ([1]; 426.54 K) [kPa] | vapor or sublimation pressure ([1]; 410.86 K) [kPa]
CCCCC(C)=O [2-hexanone] | 811.2 ± 0.4 | 26.66 ± 0.27 | 53.33 ± 0.32 | 79.99 ± 0.45 | 101.32 ± 0.53 | 1.4008 ± 0.0007 |  |  |  |  | 
COc1ccccc1 [anisole] | 994.1 ± 0.2 |  |  |  |  | 1.5171 ± 0.0007 | 26.66 ± 0.25 | 53.33 ± 0.3 | 79.99 ± 0.43 | 101.32 ± 0.5 | 
CCCCCO [pentan-1-ol] | 814.5 ± 0.4 |  |  |  |  | 1.4098 ± 0.0007 |  |  |  |  | 101.32 ± 1
